Assay results as given in ChEMBL document CHEMBL1158615, “Synthesis and biological evaluation of bicyclo[3.3.0] octane derivatives as dipeptidyl peptidase 4 inhibitors for the treatment of type 2 diabetes” (Bioorg Med Chem Lett, 2010).
Active and inactive are the calls of the source. The calls are words filed in the database; no cut-off is given here.

What was measured:
[1] = target: Dipeptidyl peptidase 4 (Homo sapiens, UniProt P27487)
Description: Inhibition of DPP4 by chemical luminescent assay

[2] = test system: Mus musculus; assay: Antidiabetic activity in ICR mouse assessed as deduction of glucose excursion at 0.3 to 10 mg/kg, po administered 30 mins before oral glucose challenge measured up to 120 mins by oral glucose tolerance test; type: functional, organism-based

Chain of Dipeptidyl peptidase 4 (P27487 whole entry): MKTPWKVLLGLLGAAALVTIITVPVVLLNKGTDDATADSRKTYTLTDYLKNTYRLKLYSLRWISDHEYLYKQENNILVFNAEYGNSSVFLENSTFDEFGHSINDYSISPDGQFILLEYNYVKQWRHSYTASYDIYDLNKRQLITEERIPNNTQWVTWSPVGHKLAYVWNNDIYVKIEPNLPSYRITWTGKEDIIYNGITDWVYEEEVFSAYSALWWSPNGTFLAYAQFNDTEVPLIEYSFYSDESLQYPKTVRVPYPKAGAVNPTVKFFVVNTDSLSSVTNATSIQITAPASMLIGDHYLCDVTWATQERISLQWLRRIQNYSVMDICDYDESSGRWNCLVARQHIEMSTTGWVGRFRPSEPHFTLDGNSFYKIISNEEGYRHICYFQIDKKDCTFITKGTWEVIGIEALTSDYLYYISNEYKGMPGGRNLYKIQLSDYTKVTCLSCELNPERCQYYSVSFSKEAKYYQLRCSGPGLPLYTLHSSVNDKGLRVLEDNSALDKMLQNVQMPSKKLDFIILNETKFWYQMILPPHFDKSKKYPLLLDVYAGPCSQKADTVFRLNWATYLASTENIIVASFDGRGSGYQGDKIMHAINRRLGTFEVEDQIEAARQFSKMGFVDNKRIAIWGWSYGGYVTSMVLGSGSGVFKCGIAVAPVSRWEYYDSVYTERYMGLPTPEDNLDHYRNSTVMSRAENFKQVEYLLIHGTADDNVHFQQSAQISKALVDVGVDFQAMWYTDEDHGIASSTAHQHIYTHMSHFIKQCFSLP

Row | SMILES | IC50 [1] [nM] | Activity [2]
1 | CC(C)NC(=O)O[C@H]1C[C@H]2C[C@@H](NCC(=O)N3CCC[C@H]3C#N)C[C@H]2C1 | 204 | 
2 | N#C[C@@H]1CCCN1C(=O)CN[C@H]1C[C@H]2C[C@@H](O)C[C@H]2C1 |  | Active
3 | CO[C@H]1C[C@H]2C[C@@H](NCC(=O)N3CCC[C@H]3C#N)C[C@H]2C1 |  | Active
4 | N#C[C@@H]1CCCN1C(=O)CN[C@@H]1C[C@@H]2C[C@H](OC(=O)Nc3ccccc3)C[C@@H]2C1 | 121 | 
5 | CC(C)(C)NC(=O)O[C@H]1C[C@H]2C[C@@H](NCC(=O)N3CCC[C@H]3C#N)C[C@H]2C1 | 326 | 
